Earlier results, collected in patent US20030232367A1, “Differentially expressed genes involved in angiogenesis, the proteins encoded thereby, and methods of using the same” (priority 2002, published 2003).

Tested on: vascular endothelial cell proliferation
Settings: endothelial vs tumor cell proliferation (Ingber et al. 1990)

CO[C@@H]1[C@H](OC(=O)NC(=O)CCl)CC[C@]2(CO2)[C@H]1[C@@]1(C)O[C@@H]1CC=C(C)C [AGM-1470]
half-maximal inhibition of vascular endothelial cell proliferation at lower concentration than tumor cell proliferation: 4 logs
